From patent US9266872B2, “2-hydroxyarylamide derivative or pharmaceutically acceptable salt thereof, preparation method thereof, and pharmaceutical composition for preventing or treating cancer containing same as active ingredient” (KOREA RESEARCH INSTITUTE OF BIOSCIENCE AND BIOTECHNOLOGY, priority 2011, dated 2016) come the findings set out here.

The test addresses T1, TMPRSS4 serine protease (Homo sapiens, UniProt Q9NRS4).
T1 construct: TMPRSS4 serine protease domain (205th Val˜437th Leu) was cloned in pET21b/NdeI-XhoI; inferred from pET21b XhoI cloning and Ni-NTA purification) (C); made in house; host or cells: E. coli BL21 (DE3)
Put plainly: Inhibitory effect on TMPRSS4 serine protease activity using peptide substrate. The class given is biochemical. The note with it: for inhibition at 30 µM: read-out: Intracellular protease activity Inhibition % 30 uM; for inhibition at 10 µM / Intracellular protease activity Inhibition % 10 uM: 10 uM compound; for inhibition at 10 µM: read-out: Intracellular protease activity Inhibition % 10 uM; for inhibition at 100 µM: 100 uM compound, read-out: Intracellular protease activity Inhibition % 100 uM. As to the method: TMPRSS4 serine protease domain (205th Val˜437th Leu) was cloned in pET21b/NdeI-XhoI, which was introduced in E. coli BL21 (DE3). At this time, FlagX2-enterokinase cleavage site ([…]; total 15 amino acids) was inserted in N-terminal of TMPRSS4 serine protease domain as shown in FIG. 1. The forward and reverse primers for PCR used for the cloning were presented by SEQ. ID. NO: 1 and NO: 2.
The cells were cultured in 10 ml of LB containing ampicillin at 37° C. overnight. IL of LB+ampicillin was added thereto, followed by further culture until OD reached 0.6˜0.8. 0.1 mM IPTG was added thereto, followed by further culture for 16 hours. Cell pellet was obtained, purified by Ni-NTA (Qiagen), and dialyzed. TMPRSS4 serine protease (pro-form) labeled with 2 mg of 2Xflag-enterokinase cleavage site was conjugated to Ni-NTA resin (4°, overnight). Enterokinase (NEB) was treated thereto at the concentration of 0.0002%/w/w at room temperature for 5 hours. The sample was washed, eluted with 50 mM imidazole in 20 mM of sodium phosphate buffer, and then dialyzed.
The protein activity was evaluated by measuring fluorescence shown during hydrolysis of the peptide. […] Reaction was induced after adding 100 μM of the peptide substrate into reaction buffer (50 mM Tris-HCl (pH 8.0), 10 mM CaCl2, 1 μM ZnCl2). Then, fluorescence was measured at 5 minutes interval (excitation 385 nm, emission 455 nm).
Then, fluorescence (excitation 385 nm/emission 455 nm) was measured at 5 minutes interval for 150 minutes. […] Dimethylsulfoxide (DMSO) was used as the negative control.

[1] abbreviates: 30 uM compound, kallikrein peptide substrate 100 μM, DMSO negative control.
Where [2] appears, read: kallikrein peptide substrate 100 μM, DMSO negative control.

T1 sequence (Q9NRS4 205-437): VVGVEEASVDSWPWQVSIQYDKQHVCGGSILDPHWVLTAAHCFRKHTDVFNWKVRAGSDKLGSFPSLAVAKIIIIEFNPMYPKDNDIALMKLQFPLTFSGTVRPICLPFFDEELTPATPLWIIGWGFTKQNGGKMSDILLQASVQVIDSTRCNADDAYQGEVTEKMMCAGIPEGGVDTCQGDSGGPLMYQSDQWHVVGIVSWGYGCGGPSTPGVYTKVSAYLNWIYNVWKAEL

Consider `NCCc1ccc(S(=O)(=O)F)cc1` [AEBSF, reference compound], for which the “TMPRSS4 serine protease active form activity (hydrolysis of peptide substrate)” value (1 mM, trypsin and kallikrein peptide substrates) is listed as “inhibited”.

Broadly, the inhibition is the relative decrease from the control value, in per cent. For `O=C(Nc1cc(C(F)(F)F)cc(C(F)(F)F)c1)c1cc(Cl)cc(Cl)c1O` [Example 2, N-(3,5-bis(trifluoromethyl)phenyl)3,5-dichloro-2-hydroxybenzamide], the inhibition at 30 µM under setting [1] worked out at 100%.

Take `Cc1ccc(O)c(C(=O)Nc2cc(C(F)(F)F)cc(C(F)(F)F)c2)c1` [Example 3, N-(3,5-bis(trifluoromethyl)phenyl)-2-hydroxy-5-methylbenzamide]: the inhibition at 10 µM under setting [2] turned out to be 0%. Moreover, the inhibition at 30 µM under setting [1] is 64%.

Consider `O=C(Nc1ccc(F)c(C(F)(F)F)c1)c1cc(Cl)ccc1O` [Example 4, 5-chloro-N-(4-fluoro-3-(trifluoromethyl)phenyl)-2-hydroxybenzamide], for which, under setting [2], the “Intracellular protease activity Inhibition % 10 uM” value is given as 64%, the inhibition at 10 µM is 51 to 100% and the inhibition at 100 µM turned out to be 98%. The inhibition at 30 µM under setting [1] was 86%.

On to `O=C(Nc1cc(C(F)(F)F)cc(C(F)(F)F)c1)c1ccccc1O` [Example 5, N-(3,5-bis(trifluoromethyl)phenyl)-2-hydroxybenzamide], for which the inhibition at 10 µM under setting [2] amounted to 0%. The inhibition at 30 µM under setting [1] came to 20%.

For `COc1ccc(O)c(C(=O)Nc2cc(C(F)(F)F)cc(C(F)(F)F)c2)c1` [Example 7, N-(3,5-bis(trifluoromethyl)phenyl)-2-hydroxy-5-methoxybenzamide], the inhibition at 10 µM under setting [2] came out at 0%. In addition, the inhibition at 30 µM under setting [1] turned out to be 53%.

For `O=C(Nc1cc(C(F)(F)F)cc(C(F)(F)F)c1)c1cc(Br)ccc1O` [Example 9, N-(3,5-bis(trifluoromethyl)phenyl)-5-bromo-2-hydroxybenzamide], under setting [2], the “Intracellular protease activity Inhibition % 10 uM” value was 54% and the inhibition at 10 µM lay in the range of 51 to 100%. The inhibition at 30 µM under setting [1] was determined as 84%.

For the compound `O=C(Nc1cccc(C(F)(F)F)c1)c1cc(Cl)ccc1O` [Example 10, 5-chloro-N-(3-(trifluoromethyl)phenyl)-2-hydroxybenzamide], under setting [2], the inhibition at 10 µM was determined as 37%. In addition, the inhibition at 30 µM under setting [1] was 91%.

Regarding `N#Cc1cccc(NC(=O)c2cc(Cl)ccc2O)c1` [Example 11, 5-chloro-N-(3-cyanophenyl)-2-hydroxybenzamide], under setting [2], the inhibition at 10 µM stood at 12% and the inhibition at 100 µM is 88%. For the same compound, the inhibition at 30 µM under setting [1] was 47%.

As for `N#Cc1ccc(NC(=O)c2cc(Cl)ccc2O)cc1` [Example 12, 5-chloro-N-(4-cyanophenyl)-2-hydroxybenzamide], the inhibition at 30 µM under setting [1] was 29%. Further, the inhibition at 100 µM under setting [2] came out at 69%.

In the case of `O=C(Nc1cc(C(F)(F)F)cc(C(F)(F)F)c1)c1ccc(C(F)(F)F)cc1O` [Example 13, N-(3,5-bis(trifluoromethyl)phenyl)-4-(trifluoromethyl)-2-hydroxybenzamide], the inhibition at 10 µM under setting [2] is 32%. Further, the inhibition at 30 µM under setting [1] turned out to be 79%.

Consider `O=C(Nc1cc(C(F)(F)F)cc(C(F)(F)F)c1)c1cc(F)ccc1O` [Example 14, N-(3,5-bis(trifluoromethyl)phenyl)-5-fluoro-2-hydroxybenzamide], for which the inhibition at 10 µM under setting [2] is 0%. Moreover, the inhibition at 30 µM under setting [1] worked out at 55%.

As for `O=C(Nc1ccc(C(F)(F)F)cc1)c1cc(Cl)ccc1O` [Example 15, 5-chloro-N-(4-(trifluoromethyl)phenyl)-2-hydroxybenzamide], the inhibition at 10 µM under setting [2] turned out to be 22%. For the same compound, under setting [1], the inhibition at 30 µM was 100%.

`O=C(Nc1ccc(Br)c(C(F)(F)F)c1)c1cc(Cl)ccc1O` [Example 16, N-(4-bromo-3-(trifluoromethyl)phenyl)-5-chloro-2-hydroxybenzamine]: under setting [2], the “Intracellular protease activity Inhibition % 10 uM” value was 80% and the inhibition at 100 µM turned out to be 98%. For the same compound, the “Intracellular protease activity Inhibition % 30 uM” value under setting [1] came out at 93%.

For `O=C(Nc1cc(C(F)(F)F)ccc1C(F)(F)F)c1cc(Cl)ccc1O` [Example 18, N-(2,5-bis(trifluoromethyl)phenyl)-5-chloro-2-hydroxybenzamine], the inhibition at 10 µM under setting [2] is 46%. Moreover, the inhibition at 30 µM under setting [1] was found to be 54%.

With `O=C(Nc1cc(C(F)(F)F)ccc1Br)c1cc(Cl)ccc1O` [Example 20, N-(2-bromo-5-(trifluoromethyl)phenyl)-5-chloro-2-hydroxybenzamide], the inhibition at 10 µM under setting [2] worked out at 40%. Moreover, under setting [1], the inhibition at 30 µM worked out at 100%.

For the compound `O=C(Nc1cc(C(F)(F)F)ccc1F)c1cc(Cl)ccc1O` [Example 21, 5-chloro-N-(2-fluoro-5-(trifluoromethyl)phenyl)-2-hydroxybenzamide], the inhibition at 30 µM under setting [1] amounted to 100%.

In the case of `O=C(Nc1cc(C(F)(F)F)ccc1Cl)c1cc(Cl)ccc1O` [Example 23, 5-chloro-N-(2-chloro-5-(trifluoromethyl)phenyl)-2-hydroxybenzamide], under setting [2], the “Intracellular protease activity Inhibition % 10 uM” value came to 64%, the inhibition at 10 µM is 51 to 100% and the inhibition at 100 µM is 100%. In addition, the inhibition at 30 µM under setting [1] was 99%.

As to `O=C(NCc1cc(C(F)(F)F)cc(C(F)(F)F)c1)c1cc(Cl)ccc1O` [Example 24, N-(3,5-bis-trifluoromethyl-benzyl)-5-chloro-2-hydroxy-benzamide], the inhibition at 10 µM under setting [2] was found to be 36%. Further, the inhibition at 30 µM under setting [1] came to 63%.

With `O=C(Nc1cc(C(F)(F)F)cc(C(F)(F)F)c1)c1cccc(Cl)c1O` [Example 26, N-(3,5-bis-trifluoromethyl-phenyl)-3-chloro-2-hydroxy-benzamide], under setting [2], the “Intracellular protease activity Inhibition % 10 uM” value is given as 61% and the inhibition at 10 µM is 51 to 100%. The inhibition at 30 µM under setting [1] turned out to be 93%.

For the compound `O=C(Nc1cc(C(F)(F)F)cc(C(F)(F)F)c1Cl)c1cc(Cl)ccc1O` [Example 29, 5-chloro-N-(2-chloro-3,5-bis-trifluoromethyl-phenyl)-2-hydroxy-benzamide], the inhibition at 10 µM under setting [2] is 43%. In addition, the inhibition at 30 µM under setting [1] worked out at 100%.

`O=C(Nc1cc(C(F)(F)F)cc(C(F)(F)F)c1)c1cc(-c2ccc(F)cc2F)ccc1O` [Example 30]: the inhibition at 10 µM under setting [2] is 5%. The inhibition at 30 µM under setting [1] is 31%.

For the compound `Nc1ccc(O)c(C(=O)Nc2cc(C(F)(F)F)cc(C(F)(F)F)c2)c1` [Example 31, 5-amino-N-(3,5-bis(trifluoromethyl)phenyl)-2-hydroxybenzamide], the inhibition at 10 µM under setting [2] is 3%. Also, under setting [1], the inhibition at 30 µM worked out at 30%.

Consider `Cc1cc(Cl)cc(C(=O)Nc2cc(C(F)(F)F)cc(C(F)(F)F)c2)c1O` [Example 34, N-(3,5-bis(trifluoromethyl)phenyl)-5-chloro-2-hydroxy-3-methylbenzamide], for which the inhibition at 10 µM under setting [2] is 33%. The inhibition at 30 µM under setting [1] was 78%.

For `CC(=O)Nc1ccc(O)c(C(=O)Nc2cc(C(F)(F)F)cc(C(F)(F)F)c2)c1` [Example 35, 5-acetamido-N-(3,5-bis(trifluoromethyl)phenyl)-2-hydroxybenzamide], the inhibition at 10 µM under setting [2] amounted to 0%. Under setting [1], the inhibition at 30 µM was found to be 0%.

Regarding `NC(=O)c1ccc(O)c(C(=O)Nc2cc(C(F)(F)F)cc(C(F)(F)F)c2)c1` [Example 38, N^3-(3,5-bis-trifluoromethyl-phenyl)-4-hydroxy-isophthalamide], under setting [2], the inhibition at 10 µM was determined as 0%. Under setting [1], the inhibition at 30 µM came to 21%.

Consider `COc1c(C(F)(F)F)cc(NC(=O)c2cc(Cl)ccc2O)cc1C(F)(F)F` [Example 39, 5-chloro-2-hydroxy-N-(4-methoxy-3,5-bis-trifluoromethyl-phenyl)-benzamide], for which, under setting [2], the “Intracellular protease activity Inhibition % 10 uM” value turned out to be 56% and the inhibition at 10 µM lay in the range of 51 to 100%. Moreover, the inhibition at 30 µM under setting [1] was 80%.

Turning to `O=C(Nc1ccccn1)c1cc(Cl)ccc1O` [Example 40, 5-chloro-2-hydroxy-N-(pyridine-2-yl)benzamide], under setting [1], the inhibition at 30 µM came to 0%. Under setting [2], the inhibition at 100 µM came to 11%.

Take `O=C(Nc1ccc(C(F)(F)F)cn1)c1cc(Cl)ccc1O` [Example 41, 5-chloro-2-hydroxy-N-(5-(trifluoromethyl)pyridine-2-yl)benzamide]: the inhibition at 30 µM under setting [1] is 25%. For the same compound, the inhibition at 100 µM under setting [2] came to 47%.

With `O=C(Nc1ccc(Cl)cn1)c1cc(Cl)ccc1O` [Example 42, 5-chloro-N-(5-chloropyridine-2-yl)-2-hydroxybenzamide], the inhibition at 30 µM under setting [1] is 14%. For the same compound, the inhibition at 100 µM under setting [2] was determined as 55%.

For `O=C(Nc1c(F)c(F)nc(F)c1F)c1cc(Cl)ccc1O` [Example 43, 5-chloro-2-hydroxy-N-(perfluoropyridine-4-yl)benzamide], the inhibition at 30 µM under setting [1] is 31%. The inhibition at 100 µM under setting [2] came to 51%.
